US11254907B2, “Fungal volatile organic compound enhances plant s growth characteristics” (The United States of America as represented by the …, priority 2018, dated 2022)

How the values were obtained:
[1] = system: peach rootstock 'Bailey-OP' (Prunus persica); test: Root primordia induction from peach in vitro shoots on mLP with IBA; assay type: in vivo
Protocol: A two-step process was tested to induce roots from in vitro shoots and establish plants in the greenhouse. In vitro shoots of the peach rootstock ‘Bailey-OP’ (Prunus persica) of longer than 2 cm in height were first transferred to a modified Lepoivre LP medium (mLP) containing basal salts of LP medium (Quorin and Lepoivre, Acta Hort. 78:437-442, 1977) and a vitamin mixture composed of 1.0 mg/L thiamine-HCl, 1.0 mg/L nicotinic acid, 1.0 mg/L pyridoxine-HCl, 4.0 mg/L glycine, 0.2 mg/L biotin and 2.0 mg/L Ca-pathothenate (mLP) supplemented with various concentrations of indole-3-butyric acid (IBA) and cultured for two weeks to induce root primordia. The IBA concentrations ranged from 0.5 to 2.0 mg/L. Shoots with root primordia at the base were then taken out and separated into two groups. The first group was cultured on mLP medium without any growth regulators for continuous plant development as a control, whereas the second group was maintained on a similar growth regulator-free mLP medium but with a culture tube closure containing MVOC-emitting fungus of C. sp isolate TC09 (Accession No. NRRL 67603).

[2] = NPA as low as 5 μM; cited from earlier work
tobacco seedlings = test: Polar auxin transport interference test (NPA in plant culture medium with MVOCs); assay type: in vivo, Nicotiana tabacum; settings: 10 μM NPA, 20 days
Protocol: In vitro containment conditions for fungal cultures were modified to utilize culture tube closure or cap (3×4 cm, diameter×length, closure for 25 mm culture tubes, Sigma C5791) in order to mitigate problems related to condensation build-up inside the filter-sealed microcentrifuge tubes that could suffocate growing fungus and reduce MVOC emission, as subsequently noticed. For each sterile closure cap, 5 ml semi-solid MS medium was added and 10 μl of conidial suspension at a density of 1×10^5 CFU per ml was subsequently introduced. The fungal culture in the closure was then placed in a Magenta™ GA7 vessel that contains tobacco seedlings. For controls, a blank culture cap was added. All experiments were repeated three times. Each involved three treated and untreated vessels, respectively, and three replicate plants for each vessel. Cultures were placed under light conditions with a 16-h photoperiod at 25° C. Plants were treated with 10 or 20 d of fungal exposure duration. Regardless of exposure duration used, plant growth was monitored and compared with controls without fungal cultures at the end of 20 d after introduction of fungal cultures. For polar auxin transport interference tests, 10 μM auxin transport inhibitor N-1-naphthylphthalamic acid (NPA) is incorporated in plant culture medium and used to assess plant response in the presence of MVOCs. […]

Row | SMILES | root formation efficiency ([1]; 0.5 mg/L IBA) | root formation frequency ([1]; 1.0 mg/L IBA) | root induction efficiency ([1]; 1.5 mg/L IBA) | root induction efficiency ([1]; 2.0 mg/L IBA) | effect on stimulatory effects of Fusarium oxysporum MVOCs on plant biomass increase [2] | effect on root length, number of leaves and largest leaf length of C. sp treated plants (tobacco seedlings) | lateral root formation (tobacco seedlings)
1 | O=C(O)CCCc1c[nH]c2ccccc12 [IBA, indole-3-butyric acid] | very low root formation efficiency | up to 70% | great reduction in root induction efficiency | less than 20% | – | – | –
2 | O=C(O)c1ccccc1C(=O)Nc1cccc2ccccc12 [NPA, N-1-naphthylphthalamic acid] | – | – | – | – | completely negating | remained similar | arrested lateral root formation
